Literature values in patent publication US20130140210A1, “LOW-DOSED SOLID ORAL DOSAGE FORMS FOR HRT” (BAYER INTELLECTUAL PROPERTY GMBH, priority 2010, published 2013).

Test system: moderate or severe hot flushes in menopausal women
Conditions: 2 mg E2

In the case of `C[C@]12CC[C@@H]3c4ccc(O)cc4CC[C@H]3[C@@H]1CC[C@@H]2O` [E2, estradiol], the estrogen-related adverse events is given as “increased estrogen-related adverse events”.
